# Paper PMC10940318, “Targeted intracellular delivery of dimeric STINGa by two pHLIP peptides for treatment of solid tumors” (Frontiers in Pharmacology, 2024)
# What was measured:
# [1] = Stability in human plasma; format: in vitro ADME; settings: single donor human plasma, 200 µM, 0-24 h at 37°C, methanol precipitation, HPLC C18, UV 220/280/325 nm
# Procedure: Plasma proteins were precipitated by methanol (1:5 volume ratio of plasma to methanol) and centrifuged for 10 min at 13.4 rpm. The supernatant was collected and analyzed by HPLC using a Zorbax SB-C18 4.6 × 250 mm, 5 μm column with a gradient from 20% to 80% acetonitrile in water containing 0.05% TFA. Chromatograms were recorded at 220 nm, 280 nm and 325 nm.
# [2] = system: CT26 cancer cells; test: Re-challenge of tumor-free mice with CT26 cancer cells; format: in vivo, Balb/c mice; settings: 11 survivors of both dose groups, contralateral flank, kept 40 more days
# Text: In the 2pHLIP-dMSA treated groups the mice that stayed tumor-free were re-challenged with tumor cells injected into the tumor-free flank on day 65 after the first injection of 2pHLIP-dMSA. Tumor-free mice were kept for an additional 40 days (total of 105 days after the treatment with 2pHLIP-dMSA) and then were euthanized.
# [3] = system: CT26 tumors; test: Cytokine levels in tumor and serum by ELISA; format: in vivo, Balb/c mice
# Procedure: To establish levels of cytokines in blood and tumor samples, 5 × 10^4 CT26 cancer cells were injected SQ in 100 µL of growth medium into the right flank of female Balb/c mice. When tumors reached 250–500 mm^3 in volume, the mice received a single IP injection of 300 μM 500 µL 2pHLIP-dMSA or no injections. Animals were euthanized at 6- and 24-h post-injection, blood and tumors were collected. Blood samples were kept for 40 min at RT, centrifuged at 5,000 g for 20 min at +4°C and supernatant (serum) was collected. Tumors were frozen in liquid nitrogen. Both the serum and the tumor tissue samples were kept at −80°C until further processing and analysis. The tumor samples were processed while on ice, using a bullet blender (Next Advance) with 1 mm diameter zirconium silicate beads (Next Advance). The supernatant of the processed tumors was used for enzyme-linked immunoassay (ELISA) assays. Matched antibody pair kits for mouse TNF alpha (Sino Biological), mouse IL-6 (Abcam), mouse IFN gamma (Invitrogen), mouse IFN beta (Bio-Techne), and a precoated mouse IFN alpha kit (Invitrogen) were used. For TNF alpha and IFN beta the capture antibodies were diluted in PBS (Cytiva), while the IL-6 and IFN gamma capture antibodies were diluted in their respective coating buffers. The diluted capture antibodies were incubated in the plates overnight at +4°C and washed the next day with PBS/Tween washing buffer (Sigma-Aldrich). The TNF alpha plate was blocked using 2% BSA (Thermo-Scientific) diluted in washing buffer, the IFN beta plate was blocked using 1% BSA diluted in PBS, while the IFN alpha, IFN gamma, and IL-6 plates were blocked using their respective dilution buffers. Blocking was done for 2 h at RT on an orbital shaker at 200 rpm. After blocking, the plates were washed and then incubated with the diluted tumor and serum samples along with the corresponding standard solutions for each ELISA kit. The samples were incubated for 2 h at RT on an orbital shaker at 200 rpm. The TNF alpha plate was incubated for 1 h at RT with a diluted detection antibody conjugated with horseradish peroxidase (HRP). The IL-6, IFN alpha, IFN beta, and IFN gamma plates were incubated for 1 h at RT with a diluted detection antibody conjugated with biotin followed by incubation for 1 h at RT with their respective diluted HRP-streptavidin conjugates. All plates were washed and incubated with 3,3′,5,5′-tetramethylbenzidine (TMB) (Invitrogen) and peroxide solution mixed at a ratio of 1:1 (Thermo Scientific) for up to 20 min, then a stop solution (10% H2SO4) was added to the plates. The signal from the wells was quantified by absorbance measured at 450 nm using a Bio-Rad iMark microplate reader. Antibody standards were used to plot calibration curves.
# [4] = Stopped-flow fluorescence kinetics of membrane insertion and exit; format: physicochemical; settings: POPC liposomes
# Procedure: Fluorescence kinetics was measured using a SFM-300 mixing system (Bio-Logic Science Instruments) in combination with the MOS-450 spectrometer with the temperature control set to 25°C. All samples were degassed before measurement to minimize air bubbles in the samples. pHLIP-mMSA/2pHLIP-dMSA and POPC samples were incubated overnight to reach equilibrium, when most of the agent was associated with liposome lipid bilayers. […] To follow exit of pHLIP-mMSA/2pHLIP-dMSA from the membrane, a low pH solution containing 14 μM pHLIP-mMSA/2pHLIP-dMSA and 2.8 mM POPC was mixed with dibasic phosphate buffer to raise the pH from 4 to 7.4. To monitor the fluorescence intensity changes during pHLIP-mMSA/2pHLIP-dMSA insertion induced by the pH change, the emission signal was observed through a cut-off 320 nm filter at an excitation of 295 nm.
# [5] = Self-immolation kinetics of the S-S linker and payload release after DTT, by HPLC; format: physicochemical; settings: DTT in 50 mM phosphate buffer, 150 mM NaCl, pH 7.4; HPLC at 0.5-48 h, UV 220/280/325 nm
# Procedure: Figure S3. Kinetics of self-immolation of 2pHLIP-dMSA. […] Starting 2pHLIP-dMSA is shown on A.
# Figure S4. Self-immolation kinetics of pHLIP-mMSA. HPLC chromatograms recorded at 280 nm and 325 nm for pHLIP-mMSA treated with DTT dissolved in 50 mM phosphate buffer containing 150 mM NaCl pH 7.4 at different time points ([…]) after addition of DTT (A-G) and the retention time for mMSA (H) and pHLIP (I) are shown. Starting pHLIP-mMSA is shown on A.
# [6] = single IP injection 300 µM 500 µL, 6 and 24 h
sequence,measurement,setting,value
ADQDNPWRAYLDLLFPTDTLLLDLLWCG [2pHLIP-dMSA],stability in human plasma (in words),[1],very high
same,tumor development after re-injection of cancer cells on day 65,[2],none of them developed tumors
same,"IL-6 level in blood (Figure 4D, in words)","[3]; 6 h after single IP injection 300 µM 500 µL, returned to normal at 24 h",slight increase
same,increase of TNF-α level in tumors,"[3]; 6 h after single IP injection 300 µM 500 µL, vs untreated mice",23 fold
same,TNF-α level in tumors (in words),[3]; 24 h after single IP injection 300 µM 500 µL,fell to a normal level
same,level of IFN-α in tumors and serum (in words),[3]; [6],did not change much
same,level of IFN-γ in tumors and serum (in words),[3]; [6],did not change much
same,TNF-α level in serum (in words),"[3]; single IP injection 300 µM 500 µL, treated and untreated mice",insignificant
same,IFN-β level in serum (in words),"[3]; single IP injection 300 µM 500 µL, two orders of magnitude lower than in tumors",slight increase
same,increase of tumor level of IFN-β,"[3]; single IP injection 300 µM 500 µL, vs untreated mice",8 fold
same,time to completion of insertion into the lipid bilayer,"[4]; pH drop from pH 7.4 to 4, 25°C, fluorescence ex 295 nm",≤ 100 ms
same,kinetics of membrane insertion (in words),"[4]; pH drop from pH 7.4 to 6, compared with pHLIP-mMSA",more efficient and faster than the insertion of pHLIP-mMSA
same,exit from the lipid bilayer (in words),"[4]; pH rise from pH 4 to 7.4 and from pH 4 to 5.5, compared with pHLIP-mMSA",slightly slower
same,time to completion of linker self-immolation and release of payload in its original form,[5],≤ 48 h
